Experiments:
[1] = tested on: MDA-MB-468; experiment: Cytotoxicity against human MDA-MB-468 cells after 4 days by SRB assay; details: MDA-MB-468, 96 h
[2] = molecular target: Growth factor receptor-bound protein 7 (Homo sapiens) (UniProt Q14451)
Description: Binding affinity to human GRB7 SH2-apo domain expressed in Escherichia coli BL21 (DE3) assessed as change in melting temperature at 100 uM by thermofluor based melting point shift assay

[3] = molecular target: Growth factor receptor-bound protein 7 (Homo sapiens) (UniProt Q14451); remark: listed apart in the source
Description: Binding affinity to human GRB7 SH2-apo domain expressed in Escherichia coli BL21 (DE3) assessed as change in melting temperature at 200 uM by thermofluor based melting point shift assay

Sequence of Growth factor receptor-bound protein 7 (Homo sapiens) (Q14451 whole entry): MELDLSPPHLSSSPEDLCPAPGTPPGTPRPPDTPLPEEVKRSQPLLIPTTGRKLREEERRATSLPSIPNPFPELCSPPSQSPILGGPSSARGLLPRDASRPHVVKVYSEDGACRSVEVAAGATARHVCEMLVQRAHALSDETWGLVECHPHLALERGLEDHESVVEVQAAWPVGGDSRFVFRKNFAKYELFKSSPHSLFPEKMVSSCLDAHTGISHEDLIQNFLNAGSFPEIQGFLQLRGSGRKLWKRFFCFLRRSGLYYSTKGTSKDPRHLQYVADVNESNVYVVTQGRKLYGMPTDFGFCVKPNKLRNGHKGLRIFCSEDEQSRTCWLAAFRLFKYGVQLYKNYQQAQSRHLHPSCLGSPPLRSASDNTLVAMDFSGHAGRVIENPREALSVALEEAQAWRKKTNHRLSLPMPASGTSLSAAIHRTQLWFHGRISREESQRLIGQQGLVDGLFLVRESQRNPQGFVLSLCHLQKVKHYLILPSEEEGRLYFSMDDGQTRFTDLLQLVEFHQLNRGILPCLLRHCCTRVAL

| ΔTm [2] [°C] | ΔTm [3] [°C] | Compound | IC50 [1] [µM] |
| --- | --- | --- | --- |
| – | – | COC(=O)C(=O)C(C(=O)C(=O)Nc1ccccc1C(N)=O)c1nc2ccc(C(=O)c3ccccc3)cc2nc1O (stereo not drawn) | 86 |
| 0.45 | 0.85 | COC(=O)C(=O)C(C(=O)C(=O)Nc1ccc(C(N)=O)cc1)c1nc2ccc([N+](=O)[O-])cc2nc1O (stereo not drawn) | – |
| 1.2 | 0.95 | COC(=O)C(=O)C(C(=O)C(=O)Nc1cc([N+](=O)[O-])ccc1C#N)c1nc2ccccc2nc1O (stereo not drawn) | – |
| 1.35 | 1.85 | C[C@@H](O)[C@@H]1NC(=O)[C@H](CC(N)=O)NC(=O)[C@H](CC(=O)O)NC(=O)[C@H](Cc2ccc(O)cc2)NC(=O)CNC(=O)[C@@H](CCC(=O)O)NC(=O)[C@H](Cc2ccccc2)NC(=O)[C@H](Cc2c[nH]c3ccccc23)NC(=O)CSC[C@@H](C(=O)O)NC(=O)[C@@H]2CCCN2C(=O)[C@H](Cc2ccccc2)NC1=O | – |
| 0.9 | 0.6 | COC(=O)C(=O)C(C(=O)C(=O)Nc1cc(C)ccc1C)c1nc2ccccc2nc1O (stereo not drawn) | – |
| 0.05 | 0.55 | COC(=O)C(=O)C(C(=O)C(=O)Nc1ccccc1C(C)=O)c1nc2ccc(C(=O)c3ccccc3)cc2nc1O (stereo not drawn) | – |
| 0.45 | 0.55 | COC(=O)C(=O)C(C(=O)C(=O)Nc1cccc(C(C)=O)c1)c1nc2ccc([N+](=O)[O-])cc2nc1O (stereo not drawn) | – |

Source: ChEMBL document CHEMBL1641592, “Benzopyrazine derivatives: A novel class of growth factor receptor bound protein 7 antagonists” (Bioorg Med Chem, 2011)
